Assay results reported in ChEMBL document CHEMBL5506027, “Discovery of a Novel and Potent Cyclin-Dependent Kinase 8/19 (CDK8/19) Inhibitor for the Treatment of Cancer” (J Med Chem, 2024).

What was measured:
MV4-11 = assay: Antiproliferative activity against human MV4-11 cells incubated for 5 days by CellTiter-Glo luminescent cell viability assay; assay type: functional, cell-based; settings: MV4-11, 120 h
[1] = target: Cyclin-dependent kinase 8 (Homo sapiens, UniProt P49336); assay: Inhibition of CDK8 (unknown origin) by HTRF assay
[2] = target: T1, Cyclin-dependent kinase 19 (Homo sapiens, UniProt Q9BWU1); assay: Inhibition of CDK19 (unknown origin) by HTRF assay
CDK7/Cyclin H/MNAT1 = CDK7/Cyclin H/MNAT1 (Homo sapiens, UniProt P50613); assay: Inhibition of CDK7/cyclinH/MAT1 (unknown origin) by ADP-Glo chemiluminescence assay; assay type: protein-complex assay
CDK2/Cyclin A2 = CDK2/Cyclin A2 (Homo sapiens, UniProt P24941); assay: Inhibition of CDK2/cyclinA2 (unknown origin) by ADP-Glo chemiluminescence assay; assay type: protein-complex assay
[3] = Inhibition of CDK1/cyclinA2 (unknown origin) by ADP-Glo chemiluminescence assay; parameters: species or system Homo sapiens
[4] = target: Cyclin-dependent kinase 2/cyclin E1 (Homo sapiens, UniProt P24941); assay: Inhibition of CDK2/cyclinE1 (unknown origin) by ADP-Glo chemiluminescence assay; assay type: protein-complex assay
[5] = target: T2, Cyclin-dependent kinase 5/CDK5 activator 1 (Homo sapiens, UniProt Q00535); assay: Inhibition of CDK5/p25NCK (unknown origin) by ADP-Glo chemiluminescence assay; assay type: protein-complex assay
[6] = target: T2, Cyclin-dependent kinase 5/CDK5 activator 1; assay: Inhibition of CDK5/p35NCK (unknown origin) by ADP-Glo chemiluminescence assay; assay type: protein-complex assay
CDK8/Cyclin C = CDK8/Cyclin C (Homo sapiens, UniProt P49336); assay: Inhibition of CDK8/CyclinC (unknown origin) by ADP-Glo chemiluminescence assay; assay type: protein-complex assay
[7] = Selectivity ratio of IC50 for CDK2/CyclinA2 (unknown origin) to IC50 for CDK8/Cyclin C (unknown origin)
[8] = target: T1, Cyclin-dependent kinase 19; assay: Inhibition of CDK19 (unknown origin) by ADP-Glo assay
[9] = target: Dual specificity protein kinase CLK1 (Homo sapiens, UniProt P49759); assay: Inhibition of CLK1 (unknown origin) by ADP-Glo assay
[10] = target: Dual specificity protein kinase CLK2 (Homo sapiens, UniProt P49760); assay: Inhibition of CLK2 (unknown origin) by ADP-Glo assay
[11] = target: Dual specificity protein kinase CLK4 (Homo sapiens, UniProt Q9HAZ1); assay: Inhibition of CLK4 (unknown origin) by ADP-Glo assay
[12] = target: Serine/threonine-protein kinase pim-2 (Homo sapiens, UniProt Q9P1W9); assay: Inhibition of PIM2 (unknown origin) by ADP-Glo assay
[13] = target: Casein kinase II subunit alpha' (Homo sapiens, UniProt P19784); assay: Inhibition of CSNK2A2 (unknown origin) by ADP-Glo assay
[14] = target: Casein kinase I isoform alpha (Homo sapiens, UniProt P48729); assay: Inhibition of CSNK1A1 (unknown origin) by ADP-Glo assay
[15] = target: Homeodomain-interacting protein kinase 3 (Homo sapiens, UniProt Q9H422); assay: Inhibition of HIPK3 (unknown origin) by ADP-Glo assay
[16] = target: Dual specificity tyrosine-phosphorylation-regulated kinase 1A (Homo sapiens, UniProt Q13627); assay: Inhibition of DYRK1A (unknown origin) by ADP-Glo assay
[17] = target: Rho-associated protein kinase 1 (Homo sapiens, UniProt Q13464); assay: Inhibition of ROCK1 (unknown origin) by ADP-Glo assay
[18] = target: Serine/threonine-protein kinase haspin (Homo sapiens, UniProt Q8TF76); assay: Inhibition of HASPIN (unknown origin) by ADP-Glo assay
[19] = target: Serine/threonine-protein kinase TAO1 (Homo sapiens, UniProt Q7L7X3); assay: Inhibition of TAOK1 (unknown origin) by ADP-Glo assay
[20] = target: Mitogen-activated protein kinase 15 (Homo sapiens, UniProt Q8TD08); assay: Inhibition of ERK8 (unknown origin) by ADP-Glo assay
Cytochrome P450 1A2 [21] = target: T3, Cytochrome P450 1A2 (Homo sapiens, UniProt P05177); assay: Inhibition of CYP1A2 (unknown origin) in absence of NADPH; assay type: ADME
T3 sequence (P05177 whole entry): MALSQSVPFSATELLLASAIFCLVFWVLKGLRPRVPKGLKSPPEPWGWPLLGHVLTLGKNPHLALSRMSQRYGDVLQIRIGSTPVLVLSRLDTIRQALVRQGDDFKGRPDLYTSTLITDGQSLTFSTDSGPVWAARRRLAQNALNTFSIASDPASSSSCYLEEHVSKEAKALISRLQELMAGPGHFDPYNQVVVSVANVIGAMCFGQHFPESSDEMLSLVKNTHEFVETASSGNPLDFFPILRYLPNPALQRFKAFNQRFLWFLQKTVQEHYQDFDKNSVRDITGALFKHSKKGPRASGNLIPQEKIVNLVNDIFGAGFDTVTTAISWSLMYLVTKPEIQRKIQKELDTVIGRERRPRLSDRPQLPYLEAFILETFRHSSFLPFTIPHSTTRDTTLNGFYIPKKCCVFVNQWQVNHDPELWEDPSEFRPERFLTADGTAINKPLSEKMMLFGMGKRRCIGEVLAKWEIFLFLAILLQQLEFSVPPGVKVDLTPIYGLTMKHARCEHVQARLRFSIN

Cytochrome P450 1A2 [22] = target: T3, Cytochrome P450 1A2; assay: Inhibition of CYP1A2 (unknown origin) preincubated for 30 mins in presence of NADPH; assay type: ADME
[23] = target: Voltage-gated inwardly rectifying potassium channel KCNH2 (Homo sapiens, UniProt Q12809); assay: Inhibition of human ERG; assay type: toxicity
[24] = Clearance in mouse at 1 mg/kg, iv measured upto 24 hrs by LC-MS/MS anlaysis; assay type: ADME, organism-based; settings: in vivo
[25] = Volume of distribution at steady state in mouse at 1 mg/kg, iv measured upto 24 hrs by LC-MS/MS anlaysis; assay type: ADME, organism-based; settings: in vivo, read-out: Vdss
[26] = Half-life in mouse at 1 mg/kg, iv measured upto 24 hrs by LC-MS/MS anlaysis; assay type: ADME, organism-based; settings: in vivo
[27] = Clearance in rat at 1 mg/kg, iv measured upto 24 hrs by LC-MS/MS anlaysis; assay type: ADME, organism-based; settings: in vivo
[28] = Volume of distribution at steady state in rat at 1 mg/kg, iv measured upto 24 hrs by LC-MS/MS anlaysis; assay type: ADME, organism-based; settings: in vivo, read-out: Vdss
[29] = Half-life in rat at 1 mg/kg, iv measured upto 24 hrs by LC-MS/MS anlaysis; assay type: ADME, organism-based; settings: in vivo
[30] = Clearance in dog at 1 mg/kg, iv measured upto 24 hrs by LC-MS/MS anlaysis; assay type: ADME, organism-based, Canis lupus familiaris; settings: in vivo
[31] = Volume of distribution at steady state in dog at 1 mg/kg, iv measured upto 24 hrs by LC-MS/MS anlaysis; assay type: ADME, organism-based, Canis lupus familiaris; settings: in vivo, read-out: Vdss
[32] = Half-life in dog at 1 mg/kg, iv measured upto 24 hrs by LC-MS/MS anlaysis; assay type: ADME, organism-based, Canis lupus familiaris; settings: in vivo
[33] = Cmax in rat at 10 mg/kg, po measured upto 24 hrs by LC-MS/MS analysis; assay type: ADME, organism-based; settings: in vivo
[34] = Dose normalized AUC in monkey at 5 mg/kg, po measured upto 24 hrs by LC-MS/MS analysis; assay type: ADME, organism-based, Macaca mulatta; settings: rhesus monkey, in vivo

T2 sequence (Q00535 whole entry): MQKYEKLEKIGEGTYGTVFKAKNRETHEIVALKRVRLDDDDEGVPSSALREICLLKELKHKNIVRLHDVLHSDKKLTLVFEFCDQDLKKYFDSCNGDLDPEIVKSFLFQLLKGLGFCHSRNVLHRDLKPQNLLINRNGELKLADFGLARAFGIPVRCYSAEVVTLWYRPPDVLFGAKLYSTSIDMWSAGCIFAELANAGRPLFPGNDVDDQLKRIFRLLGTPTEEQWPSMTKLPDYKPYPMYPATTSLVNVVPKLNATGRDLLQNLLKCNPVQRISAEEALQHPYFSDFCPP
T2 sequence (Q15078 whole entry, further chain): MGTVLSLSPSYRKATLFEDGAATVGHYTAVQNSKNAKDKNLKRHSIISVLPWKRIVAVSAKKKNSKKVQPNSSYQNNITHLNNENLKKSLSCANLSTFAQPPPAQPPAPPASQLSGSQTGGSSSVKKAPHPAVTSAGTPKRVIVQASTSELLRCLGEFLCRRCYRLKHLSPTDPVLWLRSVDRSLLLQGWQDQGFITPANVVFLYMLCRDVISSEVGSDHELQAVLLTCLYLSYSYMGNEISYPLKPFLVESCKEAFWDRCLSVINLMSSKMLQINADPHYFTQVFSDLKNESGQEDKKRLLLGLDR
T1 sequence (Q9BWU1 whole entry): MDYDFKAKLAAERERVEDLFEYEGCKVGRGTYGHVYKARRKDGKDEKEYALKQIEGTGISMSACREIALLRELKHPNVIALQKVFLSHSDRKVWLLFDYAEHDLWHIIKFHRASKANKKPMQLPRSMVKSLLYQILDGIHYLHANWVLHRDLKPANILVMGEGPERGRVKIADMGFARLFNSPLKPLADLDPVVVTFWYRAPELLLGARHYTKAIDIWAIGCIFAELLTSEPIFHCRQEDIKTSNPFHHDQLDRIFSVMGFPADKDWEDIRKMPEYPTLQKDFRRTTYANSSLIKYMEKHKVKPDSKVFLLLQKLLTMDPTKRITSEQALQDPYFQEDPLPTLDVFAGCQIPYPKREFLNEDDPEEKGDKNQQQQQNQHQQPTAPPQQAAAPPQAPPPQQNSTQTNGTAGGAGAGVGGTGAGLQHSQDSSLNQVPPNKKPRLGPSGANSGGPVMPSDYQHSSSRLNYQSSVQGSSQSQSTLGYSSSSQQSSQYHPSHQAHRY
Voltage-gated inwardly rectifying potassium channel KCNH2, sequence (Q12809 whole entry): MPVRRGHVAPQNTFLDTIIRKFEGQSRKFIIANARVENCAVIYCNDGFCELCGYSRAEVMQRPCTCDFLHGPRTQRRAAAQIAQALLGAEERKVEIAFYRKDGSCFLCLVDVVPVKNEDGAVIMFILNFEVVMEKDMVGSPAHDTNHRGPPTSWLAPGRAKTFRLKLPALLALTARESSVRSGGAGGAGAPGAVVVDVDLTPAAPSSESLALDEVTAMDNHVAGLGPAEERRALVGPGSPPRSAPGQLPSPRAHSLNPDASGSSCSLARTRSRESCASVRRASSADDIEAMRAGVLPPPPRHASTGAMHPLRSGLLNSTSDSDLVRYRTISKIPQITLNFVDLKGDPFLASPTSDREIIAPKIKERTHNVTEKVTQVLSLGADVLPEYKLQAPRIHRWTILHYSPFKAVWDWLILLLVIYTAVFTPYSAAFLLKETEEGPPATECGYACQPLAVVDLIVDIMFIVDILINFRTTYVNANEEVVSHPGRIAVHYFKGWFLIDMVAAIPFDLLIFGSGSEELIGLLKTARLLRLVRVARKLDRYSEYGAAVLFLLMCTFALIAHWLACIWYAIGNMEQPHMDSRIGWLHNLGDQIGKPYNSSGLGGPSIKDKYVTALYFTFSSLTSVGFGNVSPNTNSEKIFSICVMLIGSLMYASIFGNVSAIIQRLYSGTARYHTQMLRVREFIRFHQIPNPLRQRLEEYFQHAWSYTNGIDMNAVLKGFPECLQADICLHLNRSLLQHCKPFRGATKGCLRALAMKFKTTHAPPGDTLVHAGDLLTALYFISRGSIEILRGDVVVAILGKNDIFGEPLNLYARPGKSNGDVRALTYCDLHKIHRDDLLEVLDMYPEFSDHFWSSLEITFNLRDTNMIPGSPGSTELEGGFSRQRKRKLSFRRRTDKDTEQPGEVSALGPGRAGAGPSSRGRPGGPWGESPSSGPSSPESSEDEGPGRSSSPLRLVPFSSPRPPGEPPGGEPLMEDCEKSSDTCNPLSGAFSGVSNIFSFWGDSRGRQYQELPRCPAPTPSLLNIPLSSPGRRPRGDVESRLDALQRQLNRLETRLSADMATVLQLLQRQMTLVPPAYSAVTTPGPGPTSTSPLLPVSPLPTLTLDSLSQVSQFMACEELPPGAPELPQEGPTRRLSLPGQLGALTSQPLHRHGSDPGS
Cyclin-dependent kinase 8, sequence (P49336 whole entry): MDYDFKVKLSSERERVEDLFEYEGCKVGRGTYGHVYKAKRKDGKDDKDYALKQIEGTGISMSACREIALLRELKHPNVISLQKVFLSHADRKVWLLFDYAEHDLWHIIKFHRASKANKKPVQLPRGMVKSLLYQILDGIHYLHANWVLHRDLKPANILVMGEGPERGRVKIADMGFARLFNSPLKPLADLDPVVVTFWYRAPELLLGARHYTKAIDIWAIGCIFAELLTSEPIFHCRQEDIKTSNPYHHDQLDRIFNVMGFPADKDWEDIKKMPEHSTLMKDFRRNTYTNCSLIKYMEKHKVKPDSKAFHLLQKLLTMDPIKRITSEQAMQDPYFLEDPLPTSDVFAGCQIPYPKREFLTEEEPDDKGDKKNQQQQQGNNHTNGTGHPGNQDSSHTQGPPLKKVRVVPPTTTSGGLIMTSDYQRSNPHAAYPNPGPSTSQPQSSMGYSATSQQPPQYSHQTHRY
CDK8/Cyclin C, sequence (P49336 whole entry): as above
CDK8/Cyclin C, sequence (P24863 whole entry, further chain): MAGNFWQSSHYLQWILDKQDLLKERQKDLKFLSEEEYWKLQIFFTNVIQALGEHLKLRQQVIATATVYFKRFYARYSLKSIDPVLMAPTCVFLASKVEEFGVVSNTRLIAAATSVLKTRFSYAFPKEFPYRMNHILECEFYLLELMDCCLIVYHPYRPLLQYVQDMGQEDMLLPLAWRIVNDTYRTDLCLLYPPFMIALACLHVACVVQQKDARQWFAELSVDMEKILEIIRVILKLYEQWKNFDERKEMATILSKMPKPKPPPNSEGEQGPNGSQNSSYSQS
Dual specificity protein kinase CLK2, sequence (P49760 whole entry): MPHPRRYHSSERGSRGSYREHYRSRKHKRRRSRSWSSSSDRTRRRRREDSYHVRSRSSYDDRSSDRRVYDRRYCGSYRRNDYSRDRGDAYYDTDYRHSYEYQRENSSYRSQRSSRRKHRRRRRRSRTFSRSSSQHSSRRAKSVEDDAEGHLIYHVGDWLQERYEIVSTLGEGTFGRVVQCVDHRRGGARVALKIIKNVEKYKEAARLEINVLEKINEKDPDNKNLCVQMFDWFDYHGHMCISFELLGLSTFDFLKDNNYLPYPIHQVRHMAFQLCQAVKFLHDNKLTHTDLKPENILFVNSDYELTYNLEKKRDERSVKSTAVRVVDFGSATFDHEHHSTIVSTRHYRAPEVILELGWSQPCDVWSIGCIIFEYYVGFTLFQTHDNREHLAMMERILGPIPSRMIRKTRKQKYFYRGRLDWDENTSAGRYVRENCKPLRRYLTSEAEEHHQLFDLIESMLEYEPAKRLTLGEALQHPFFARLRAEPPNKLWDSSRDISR
Serine/threonine-protein kinase haspin, sequence (Q8TF76 whole entry): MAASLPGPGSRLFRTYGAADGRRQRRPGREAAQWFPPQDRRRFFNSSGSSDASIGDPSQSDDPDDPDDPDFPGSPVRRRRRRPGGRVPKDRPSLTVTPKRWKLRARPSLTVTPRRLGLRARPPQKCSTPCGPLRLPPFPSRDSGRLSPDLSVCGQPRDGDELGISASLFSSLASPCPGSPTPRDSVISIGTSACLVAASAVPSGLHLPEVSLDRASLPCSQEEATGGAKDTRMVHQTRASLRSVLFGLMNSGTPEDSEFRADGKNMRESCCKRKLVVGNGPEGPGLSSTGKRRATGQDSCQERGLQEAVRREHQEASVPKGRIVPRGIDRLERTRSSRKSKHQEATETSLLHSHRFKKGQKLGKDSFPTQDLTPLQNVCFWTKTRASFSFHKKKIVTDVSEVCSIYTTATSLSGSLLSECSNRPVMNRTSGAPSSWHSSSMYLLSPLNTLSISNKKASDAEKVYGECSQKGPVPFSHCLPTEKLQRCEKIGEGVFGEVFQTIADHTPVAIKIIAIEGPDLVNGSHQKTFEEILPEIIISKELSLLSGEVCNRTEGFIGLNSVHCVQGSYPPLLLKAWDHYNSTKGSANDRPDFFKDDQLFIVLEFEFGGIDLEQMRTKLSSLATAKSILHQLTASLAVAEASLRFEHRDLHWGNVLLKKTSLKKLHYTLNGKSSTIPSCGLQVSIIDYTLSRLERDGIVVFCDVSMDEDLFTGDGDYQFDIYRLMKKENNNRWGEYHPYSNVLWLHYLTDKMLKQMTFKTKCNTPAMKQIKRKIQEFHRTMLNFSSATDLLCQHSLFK
Casein kinase II subunit alpha', sequence (P19784 whole entry, canonical isoform): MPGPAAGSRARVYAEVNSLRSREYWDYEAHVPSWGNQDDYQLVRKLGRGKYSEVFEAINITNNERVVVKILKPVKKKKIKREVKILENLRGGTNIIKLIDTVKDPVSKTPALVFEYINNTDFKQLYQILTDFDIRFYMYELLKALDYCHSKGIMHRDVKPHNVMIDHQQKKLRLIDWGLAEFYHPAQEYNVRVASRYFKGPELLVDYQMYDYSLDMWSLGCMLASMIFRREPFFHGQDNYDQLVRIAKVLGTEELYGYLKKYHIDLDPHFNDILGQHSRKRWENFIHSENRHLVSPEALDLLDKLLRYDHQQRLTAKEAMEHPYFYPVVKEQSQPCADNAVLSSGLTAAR

Structure (SMILES)	IC50 (MV4-11)	IC50 [1]	IC50 [2]	IC50 (CDK7/Cyclin H/MNAT1)	IC50 (CDK2/Cyclin A2)	IC50 [3]	IC50 [4]	IC50 [5]	IC50 [6]	IC50 (CDK8/Cyclin C)	IC50 [8]	IC50 [9]	IC50 [10]	IC50 [11]	IC50 [12]	IC50 [13]	IC50 [14]	IC50 [15]	IC50 [16]	IC50 [17]	further results
Cc1c(Br)c(Br)c2c3c1nc(N1CCNCC1)n3CCC2 [SEL-120 FREE BASE]	43.8 nM	14.5 nM	19.1 nM	51 nM	4.7 nM	20.5 nM	0.968 nM	1.66 nM	1.34 nM	17.5 nM	25.1 nM	5.3 nM	21 nM	2.7 nM	298 nM	279 nM	1390 nM	132 nM	332 nM	717 nM	Ratio IC50 [7]: 0.3; IC50 [18]: 46 nM; IC50 [19]: > 10000 nM; IC50 [20]: 1340 nM; IC50 (Cytochrome P450 1A2 [21]): 160 nM; IC50 (Cytochrome P450 1A2 [22]): 40 nM; IC50 [23]: 700 nM; clearance [24]: 81 mL/min/kg; Vd [25]: 19.2 L/kg; half-life [26]: 3.01 h; clearance [27]: 246 mL/min/kg; Vd [28]: 32.3 L/kg; half-life [29]: 1.77 h; clearance [30]: 30 mL/min/kg; Vd [31]: 6.23 L/kg; half-life [32]: 2.7 h
FC(F)c1c(Br)c(Br)cc2c1nc(N1CCNCC1)n2C1CCOCC1	5.7 nM	2.08 nM	2.49 nM	197 nM	42.6 nM	236 nM	31.4 nM	87.4 nM	194 nM	7.5 nM	25.1 nM	8.2 nM	14.3 nM	2.9 nM	124 nM	64.9 nM	132 nM	503 nM	158 nM	353 nM	IC50 [18]: 13.6 nM; IC50 [19]: 6680 nM; IC50 [20]: 59.7 nM; IC50 (Cytochrome P450 1A2 [21]): 8580 nM; IC50 (Cytochrome P450 1A2 [22]): 4580 nM; IC50 [23]: 5800 nM; clearance [24]: 14 mL/min/kg; Vd [25]: 5.96 L/kg; half-life [26]: 5.04 h; clearance [27]: 70 mL/min/kg; Vd [28]: 13.3 L/kg; half-life [29]: 2.53 h; clearance [30]: 12 mL/min/kg; Vd [31]: 4.31 L/kg; half-life [32]: 4.75 h; Cmax [33]: 190 ng/mL; AUC/dose [34]: 2503 ng·h/mL
